How the values were obtained:
[1] = system: EGFR; assay: cDNA PCR analysis of exon skipping / full-size transcript in EGFR; format: cell-based, Human; details: intron-targeting gRNA paired with L858R targeting CRISPR, compared to L858R targeting CRISPR alone
Description: After CRISPR reactions, total RNA was prepared, and cDNA synthesized for PCR amplification of the target region from EGFR. PCR-amplified DNA was then analyzed by electrophoresis through a 1% agarose gel for 75 minutes at 80v. DNA was stained with SYBR Safe. Lanes 1 and 13: NEB 2 Log Ladder; Lane 2: Scrambled gRNA; Lane 3: EGFR 21-22 SureKill gRNA 11 alone; Lane 4: EGFR 21-22 SureKill gRNA 13 alone; Lane 5: EGFR 21-22 SureKill gRNA 16 alone; Lane 6: EGFR 21-22 SureKill gRNA 17 alone; Lane 7: EGFR 21-22 SureKill gRNA 19 alone; Lane 8: EGFR 21-22 SureKill gRNA 22 alone; Lane 9: EGFR 21-22 SureKill gRNA 23 alone; Lane 10: EGFR 21-22 SureKill gRNA 27 alone; Lane 11: EGFR 21-22 SureKill gRNA 28 alone; Lane 12: EGFR 21-22 SureKill gRNA 29 alone. On the left side of the image are markers indicating DNA size in bp.
After CRISPR reactions, total RNA was prepared, and cDNA synthesized for semi-quantitative PCR amplification of the target region from EGFR. PCR amplification was performed for 25 cycles. PCR-amplified DNA was then analyzed by electrophoresis through a 1% agarose gel for 75 minutes at 80v. DNA was stained with SYBR Safe. […]
Transfections were carried out using the Lonza Nuclefector 4d. […] RNPs were complexed at 250:50 pmol for 30 minutes prior to transfection, during which time cells were harvested and counted. […]

[2] = system: EGFR gene; assay: Screening of SureKill guide RNAs in the EGFR gene for ability to induce indels; format: cell-based; details: transfections of individual guide RNAs (spCas9 RNP); PDMR human lung adenocarcinoma cells with EGFR L858R; DECODR
Description: Human lung squamous cell carcinoma NCI-H1703 clone 44-25 cells were derived from NCI-H1703 cells (#CRL-5889) which were purchased from ATCC (Manassas, VA, USA). NCI-H1703 clone 44-25 cells contains R34G mutation (C 4 G) in NFE2L2 gene. H1703 clone 44-25 cells were cultured in ATCC formulation RPMI-1640 with 10% FBS. T75 flasks were used and cells were split 1:5 upon reaching 90% confluency. Human lung adenocarcinoma cells (Dist. Lot. No. LG0703-F948-PDC) were acquired from the National Institute of Health's National Cancer Institute's Patient-Derived Models Repository (PDMR). This PDMR cell line contains the L858R mutation (T 4 G) in the EGFR gene. The PDMR cells were maintained in Advanced DMEM/F12 media containing 10% FBS, 0.4 μg/mL hydrocortisone, 0.01 μg/mL EGF Recombinant Human Protein, 24 μg/mL adenine, and 2 mM L-Glutamine. T75s were used and cells were split 1:3 upon reaching 90% confluency. All cultures were maintained in cell culture incubators at 37° C. and 5% CO2.
Ribonucleoproteins (RNP) are complexed by incubating 250 pmol of purified synthetic gRNA (Synthego Corporation, Redwood City, CA) with 50 pmol of purified spCas9 (Synthego Corporation, Redwood City, CA) at room temperature in nuclease-free 1× TE buffer for 15 minutes.
Transfections were carried out using the Lonza Nuclefector 4d. Cultures in t75s at 90% confluence were split 1:2 24 hours prior to transfection. RNPs were complexed at 250:50 pmol for 30 minutes prior to transfection, during which time cells were harvested and counted. All reactions were 100 μL and contained 1 e6 cells. Lonza SF solution and Nucleofector program CM-130 were used in all transfections of the H1703 cell line. Lonza SE solution and Nucleofector program CA-137 were used in all transfections of the PDMR. After transfection, 500 μL of media that had been equilibrated to cell culture CO2 and temperature conditions was added to each 100 μL cuvettes. Cuvettes were then placed in the incubator. After 20 minutes, the entire content of each cuvette was seeded into 3 mL of media in a 6 well plate. After 72 hours, samples were dissociated using 200 μL Trypsin 0.25% for 5 minutes. 800 μL culture media was used to quench and split into 1.5 mL tubes each containing 500 μL of the sample. Tubes were spun at 300×g for 5 minutes. One of the tubes was placed in the −20° C. freezer and the other was resuspended in 500 μL of Trizol for RNA extraction and cDNA synthesis.
All sequencing was performed on the Applied Biosystems SeqStudio. The BigDye Terminator v3.1 Cycle Sequencing Kit was used to prepare samples for sequencing. Resulting sequences were analyzed with DECODR to determine indel rates (Bloh et al., CRISPR J. 4:120-31 (2021)).
Human EGFR is a frequently mutated gene that is associated with cancers. One of the most common mutations is L858R which results in the creation of a novel PAM site, making it a targetable sequence by CRISPR. Like the R34G mutation, the CRISPR designed to target the L858R mutation is not highly efficient on its own. By combining the L858R-targeting CRISPR with another CRISPR of high efficiency in a downstream intronic region, exon skipping can be induced, resulting in a higher efficiency of functional knockout than the L858R targeting CRISPR alone. To find a suitable gRNA to pair with the L858R targeting CRISPR, we selected the intron between exons 21 and 22 (FIG. 6). A series of gRNAs were created in this region and screened for their ability to induce indels, a measure of their activity using DECODR (Bloh et al., CRISPR J. 4:120-31 (2021)) (Table 3).
In Table 3, all sequences are listed from 5′ to 3′. Indel percent, a measure of CRISPR activity, is based on transfections of individual guide RNAs. All guide RNAs, with the exception of L858R, were designed in the intron between exons 21 and 22.

With “EGFR 21-22 SureKill gRNA 28: EGFR intron 21-22 guide RNA GCAGCCTGGTCCCTGGTGTC, SEQ ID NO:51 (listed as DNA, chemistry not given here)” the “reduction in the full-size transcript (cDNA, semi-quantitative PCR 25 cycles)” value [1] was “enhanced reduction in the full-size transcript” and the indel % [2] was 97.6%.

Reference: patent US12171813B2, “Methods of and compositions for reducing gene expression and/or activity” (Christiana Care Gene Editing Institute, Inc., priority 2021, dated 2024)
